The target in one assay is T1, ERK1 (Homo sapiens, UniProt P27361).
T1 construct: purchased Jubilant Biosys
Description: ERK1 HTRF (biochemical) assay. How it is done:
ERK1 and ERK2 HTRF (Biochemical) Assays
These assays employed a homogeneous time resolved fluorescence (HTRF) technique. […] The plate was incubated at room temperature for 60 min with shaking. […] The IC50 values (half maximal inhibitory concentration values) were subsequently determined using a sigmoidal dose-response curve (variable slope) in GraphPad Prism® 5 software.
For orientation: TR-FRET usually uses a lanthanide donor and a delayed reading to cut background.

The next assay addresses T2, ERK2 (Homo sapiens, UniProt P28482).
T2 construct: purchased Jubilant Biosys
Description: ERK2 HTRF (biochemical) assay. The gist of the method:
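Readout was time-resolved FRET between europium anti-phospho-MBP and streptavidin-APC after a 60-min room-temperature kinase step. That step used ERK2 (25 nM in enzyme mix), biotinylated MBP peptide (1 uM) and ATP (24 uM) from the substrate mix, in pH 7.5 Tris buffer.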

Each structure is given as a SMILES string.

The term IC50 denotes the concentration at which inhibition is half-maximal. The low end stands for inhibition by little substance, the high end for a need for much substance.

T1 sequence (P27361 whole entry): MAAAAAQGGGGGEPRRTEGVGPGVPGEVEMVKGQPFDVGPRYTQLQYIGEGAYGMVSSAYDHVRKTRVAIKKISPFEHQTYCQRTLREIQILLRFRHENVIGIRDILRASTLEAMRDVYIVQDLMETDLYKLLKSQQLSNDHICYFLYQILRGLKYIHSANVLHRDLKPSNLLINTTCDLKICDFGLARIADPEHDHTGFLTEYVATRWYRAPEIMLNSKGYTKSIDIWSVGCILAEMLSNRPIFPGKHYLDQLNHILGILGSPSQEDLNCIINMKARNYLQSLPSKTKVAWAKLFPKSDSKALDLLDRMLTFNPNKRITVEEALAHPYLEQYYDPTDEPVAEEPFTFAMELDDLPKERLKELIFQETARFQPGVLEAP
T2 sequence (P28482 whole entry): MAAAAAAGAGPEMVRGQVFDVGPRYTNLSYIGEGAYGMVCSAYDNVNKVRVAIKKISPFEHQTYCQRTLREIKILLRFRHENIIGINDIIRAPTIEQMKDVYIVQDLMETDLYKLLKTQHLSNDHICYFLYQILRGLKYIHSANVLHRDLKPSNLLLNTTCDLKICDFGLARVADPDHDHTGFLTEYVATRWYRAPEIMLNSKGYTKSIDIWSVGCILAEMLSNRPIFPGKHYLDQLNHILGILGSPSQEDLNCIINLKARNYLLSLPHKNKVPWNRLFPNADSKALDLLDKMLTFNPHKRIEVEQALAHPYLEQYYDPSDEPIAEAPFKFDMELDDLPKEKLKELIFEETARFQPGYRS

As for `Cc1cnc(Nc2ccc(F)cc2)cc1-n1ccc(C(=O)NC(CN)c2ccccc2)c1` (stereo not shown) [Compound 98, N-(2-amino-1-phenylethyl)-1-(2-((4-fluorophenyl)-amino)-5-methyl-pyridin-4-yl)-1H-pyrrole-3-carboxamide], the results for the concentration for half-maximal inhibition (IC50) on ERK1 (HTRF) and at ERK2 (HTRF) were under 50 nM and at most 50 nM, respectively.
Taken in the same sequence, the figures for `Cc1cnc(Nc2ccc3c(c2)OC(F)(F)O3)cc1-n1ccc(C(=O)NC(CO)c2cccc(Cl)c2)c1` (stereo not shown) [Compound 92, N-(1-(3-chlorophenyl)-2-hydroxyethyl)-1-(2-((2,2-difluoro-benzo[d][1,3]dioxol-5-yl)amino)-5-methylpyridin-4-yl)-1H-pyrrole-3-carboxamide] were under 50 nM and at most 50 nM.
Taken in the same sequence, the figures for `Cc1cnc(N[C@@H]2CCOC2)nc1-n1cnc(C(=O)N[C@H](CN)c2cccc(Cl)c2)c1` [Example 264, N-((S)-2-amino-1-(3-chlorophenyl)-ethyl)-1-(5-methyl-2-(((R)-tetrahydrofuran-3-yl)amino)pyrimidin-4-yl)-1H-imidazole-4-carboxamide] were under 50 nM and at most 50 nM.
For `CC[C@@H](CO)Nc1ncc(C)c(-n2ccc(C(=O)NC(CO)c3ccccc3)c2)n1` (stereo partly drawn) [Compound 75, N-(2-hydroxy-1-phenylethyl)-1-(2-(((S)-1-hydroxy-butan-2-yl)amino)-5-methylpyrimidin-4-yl)-1H-pyrrole-3-carboxamide] the same measures were under 50 nM and at most 50 nM.
As to `Cc1cnc(N[C@H]2CCOC2)nc1-n1ccc(C(=O)NC(CO)c2ccc(F)cc2)c1` (stereo partly drawn) [Compound 204, N-(1-(4-fluoro-phenyl)-2-hydroxy-ethyl)-1-(5-methyl-2-(((S)-tetrahydro-furan-3-yl)amino)-pyrimidin-4-yl)-1H-pyrrole-3-carboxamide], the IC50 against ERK1 (HTRF) and against ERK2 (HTRF) was 50 to 100 nM in each case.
Regarding `Cc1cnc(Nc2ccc(F)cc2Cl)nc1-n1cc(C(=O)N[C@H](CO)c2cccc(Cl)c2)cn1` [Compound 35, (S)-1-(2-((2-chloro-4-fluoro-phenyl)amino)-5-methylpyrimidin-4-yl)-N-(1-(3-chloro-phenyl)-2-hydroxy-ethyl)-1H-pyrazole-4-carboxamide], the figures for the IC50 at ERK1 (HTRF) and at ERK2 (HTRF) were under 50 nM and at most 50 nM, respectively.
Regarding `CC(=O)OCc1c(Cl)cccc1CNC(=O)c1cn(-c2nc(N[C@H]3CCOC3)ncc2C)cn1` [Example 342, (S)-2-chloro-6-((1-(5-methyl-2-((tetrahydrofuran-3-yl)amino)pyrimidin-4-yl)-1H-imidazole-4-carboxamido)-methyl)benzyl acetate], the IC50 was under 50 nM on ERK1 (HTRF biochemical assay) and at most 50 nM against ERK2 (HTRF biochemical assay).
For the molecule `COc1c(F)cccc1Nc1ncc(C)c(-n2ccc(C(=O)NC(CO)c3cccc(Cl)c3)c2)n1` (stereo not shown) [Compound 143], the half-inhibitory concentration (IC50) is under 50 nM on ERK1 (HTRF) and at most 50 nM on ERK2 (HTRF).
For `Cc1cnc(Nc2ccc3c(c2)OCO3)nc1-n1ccc(C(=O)NC(CO)c2ccccc2)c1` (stereo not shown) [Compound 47, 1-(2-(benzo[d][1,3]dioxol-5-ylamino)-5-methylpyrimidin-4-yl)-N-(2-hydroxy-1-phenylethyl)-1H-pyrrole-3-carboxamide], the IC50 is under 50 nM at ERK1 (HTRF) and at most 50 nM at ERK2 (HTRF).
As to `Cc1cnc(Nc2ccccc2)cc1-n1cnc(C(=O)NC(CO)c2ccccc2)c1` (stereo not shown) [Compound 89, N-(2-hydroxy-1-phenylethyl)-1-(5-methyl-2-(phenyl-amino)pyridin-4-yl)-1H-imidazole-4-carboxamide], the IC50 against ERK1 (HTRF) is 100 to 500 nM; at ERK2 (HTRF), at most 50 nM.
Taken in the same sequence, the figures for `Cc1cn(-c2ccnc(Nc3ccccc3)c2)cc1C(=O)N[C@H](CO)c1cccc(Cl)c1` [Compound 183, (S)-N-(1-(3-chlorophenyl)-2-hydroxyethyl)-4-methyl-1-(2-(phenylamino)pyridin-4-yl)-1H-pyrrole-3-carboxamide] were 50 to 100 nM and at most 50 nM.
Taken in the same sequence, the figures for `Cc1cnc(NC2CCCCC2)nc1-n1cnc(C(=O)NC(CO)c2cccc(Cl)c2)c1` (stereo not shown) [Compound 226, N-(1-(3-chloro-phenyl)-2-hydroxy-ethyl)-1-(2-(cyclohexylamino)-5-methylpyrimidin-4-yl)-1H-imidazole-4-carboxamide] were under 50 nM and at most 50 nM.
`Cc1cnc(Nc2ccc3c(c2)OCCO3)nc1-n1ccc(C(=O)NC(CO)c2cccc(Cl)c2)c1` (stereo not shown) [Compound 139, N-(1-(3-chloro-phenyl)-2-hydroxyethyl)-1-(2-((2,3-dihydro-benzo[b][1,4]dioxin-6-yl)amino)-5-methylpyrimidin-4-yl)-1H-pyrrole-3-carboxamide]: the figures for the concentration for half-maximal inhibition (IC50) on ERK1 (HTRF) and on ERK2 (HTRF) were under 50 nM and at most 50 nM, respectively.
Regarding `Cc1cnc(Nc2ccc(F)cc2)cc1-n1cnc(C(=O)NC(CO)c2ccccc2)c1` (stereo not shown) [Compound 222, 1-(2-((4-fluorophenyl)amino)-5-methylpyridin-4-yl)-N-(2-hydroxy-1-phenylethyl)-1H-imidazole-4-carboxamide], the values for the IC50 against ERK1 (HTRF) and on ERK2 (HTRF) were 100 to 500 nM and 50 to 100 nM, respectively.
For `Cc1cnc(NC2CCOCC2)nc1-n1cnc(C(=O)N[C@H](CNCc2ccc[nH]2)c2cccc(Cl)c2)c1` [Example 306, (S)-N-(2-(((1H-pyrrol-2-yl)-methyl)amino)-1-(3-chlorophenyl)-ethyl)-1-(5-methyl-2-((tetrahydro-2H-pyran-4-yl)amino)-pyrimidin-4-yl)-1H-imidazole-4-carboxamide] the same measures were under 50 nM and at most 50 nM.
Regarding `Cc1cnc(NC2CCOCC2)nc1-n1cnc(C(=O)NCc2cccc(Cl)c2CN)c1` [Example 285, N-(2-(aminomethyl)-3-chlorobenzyl)-1-(5-methyl-2-((tetrahydro-2H-pyran-4-yl)amino)-pyrimidin-4-yl)-1H-imidazole-4-carboxamide], the values for the concentration for half-maximal inhibition (IC50) at ERK1 (HTRF) and on ERK2 (HTRF) were under 50 nM and at most 50 nM, respectively.
Taken in the same sequence, the figures for `O=C(Nc1cnn(-c2ccnc(Nc3ccccc3Cl)n2)c1)N[C@H](CO)c1cccc(Cl)c1` [Compound 1, (S)-1-(1-(3-chlorophenyl)-2-hydroxyethyl)-3-(1-(2-((2-chloro-phenyl)amino)pyrimidin-4-yl)-1H-pyrazol-4-yl)urea] were under 50 nM and at most 50 nM.
For `Cc1cnc(NC2COC2)nc1-n1cnc(C(=O)N[C@H](CN)c2cccc(Cl)c2)c1` [Example 268, (S)-N-(2-amino-1-(3-chlorophenyl)-ethyl)-1-(5-methyl-2-(oxetan-3-ylamino)pyrimidin-4-yl)-1H-imidazole-4-carboxamide] the same measures were under 50 nM and at most 50 nM.
Taken in the same sequence, the figures for `Cc1cnc(Nc2ccc(F)cc2Cl)cc1-n1ccc(C(=O)NC(CO)c2ccccc2)c1` (stereo not shown) [Compound 78, 1-(2-((2-chloro-4-fluorophenyl)amino)-5-methylpyridin-4-yl)-N-(2-hydroxy-1-phenylethyl)-1H-pyrrole-3-carboxamide] were under 50 nM and at most 50 nM.
Consider `Cc1cnc(Nc2ccc(N3CCNCC3)cc2)nc1-n1ccc(C(=O)NC(CO)c2ccccc2)c1` (stereo not shown) [Compound 73, N-(2-hydroxy-1-phenylethyl)-1-(5-methyl-2-((4-(piperazin-1-yl)-phenyl)amino)pyrimidin-4-yl)-1H-pyrrole-3-carboxamide], for which the concentration for half-maximal inhibition (IC50) at ERK1 (HTRF) is under 50 nM; at ERK2 (HTRF), at most 50 nM.

The values are drawn from US9896445B2, “Heterocyclic inhibitors of ERK1 and ERK2 and their use in the treatment of cancer” (Asana Biosciences, LLC, priority 2015, dated 2018).
